This note sets out measurements from patent US20120245137A1 (Zalicus Pharmaceuticals Ltd., priority 2009, published 2012).

N-type calcium channel subunits (α1B, α2δ, and β3a), sequence (Q00975 whole entry): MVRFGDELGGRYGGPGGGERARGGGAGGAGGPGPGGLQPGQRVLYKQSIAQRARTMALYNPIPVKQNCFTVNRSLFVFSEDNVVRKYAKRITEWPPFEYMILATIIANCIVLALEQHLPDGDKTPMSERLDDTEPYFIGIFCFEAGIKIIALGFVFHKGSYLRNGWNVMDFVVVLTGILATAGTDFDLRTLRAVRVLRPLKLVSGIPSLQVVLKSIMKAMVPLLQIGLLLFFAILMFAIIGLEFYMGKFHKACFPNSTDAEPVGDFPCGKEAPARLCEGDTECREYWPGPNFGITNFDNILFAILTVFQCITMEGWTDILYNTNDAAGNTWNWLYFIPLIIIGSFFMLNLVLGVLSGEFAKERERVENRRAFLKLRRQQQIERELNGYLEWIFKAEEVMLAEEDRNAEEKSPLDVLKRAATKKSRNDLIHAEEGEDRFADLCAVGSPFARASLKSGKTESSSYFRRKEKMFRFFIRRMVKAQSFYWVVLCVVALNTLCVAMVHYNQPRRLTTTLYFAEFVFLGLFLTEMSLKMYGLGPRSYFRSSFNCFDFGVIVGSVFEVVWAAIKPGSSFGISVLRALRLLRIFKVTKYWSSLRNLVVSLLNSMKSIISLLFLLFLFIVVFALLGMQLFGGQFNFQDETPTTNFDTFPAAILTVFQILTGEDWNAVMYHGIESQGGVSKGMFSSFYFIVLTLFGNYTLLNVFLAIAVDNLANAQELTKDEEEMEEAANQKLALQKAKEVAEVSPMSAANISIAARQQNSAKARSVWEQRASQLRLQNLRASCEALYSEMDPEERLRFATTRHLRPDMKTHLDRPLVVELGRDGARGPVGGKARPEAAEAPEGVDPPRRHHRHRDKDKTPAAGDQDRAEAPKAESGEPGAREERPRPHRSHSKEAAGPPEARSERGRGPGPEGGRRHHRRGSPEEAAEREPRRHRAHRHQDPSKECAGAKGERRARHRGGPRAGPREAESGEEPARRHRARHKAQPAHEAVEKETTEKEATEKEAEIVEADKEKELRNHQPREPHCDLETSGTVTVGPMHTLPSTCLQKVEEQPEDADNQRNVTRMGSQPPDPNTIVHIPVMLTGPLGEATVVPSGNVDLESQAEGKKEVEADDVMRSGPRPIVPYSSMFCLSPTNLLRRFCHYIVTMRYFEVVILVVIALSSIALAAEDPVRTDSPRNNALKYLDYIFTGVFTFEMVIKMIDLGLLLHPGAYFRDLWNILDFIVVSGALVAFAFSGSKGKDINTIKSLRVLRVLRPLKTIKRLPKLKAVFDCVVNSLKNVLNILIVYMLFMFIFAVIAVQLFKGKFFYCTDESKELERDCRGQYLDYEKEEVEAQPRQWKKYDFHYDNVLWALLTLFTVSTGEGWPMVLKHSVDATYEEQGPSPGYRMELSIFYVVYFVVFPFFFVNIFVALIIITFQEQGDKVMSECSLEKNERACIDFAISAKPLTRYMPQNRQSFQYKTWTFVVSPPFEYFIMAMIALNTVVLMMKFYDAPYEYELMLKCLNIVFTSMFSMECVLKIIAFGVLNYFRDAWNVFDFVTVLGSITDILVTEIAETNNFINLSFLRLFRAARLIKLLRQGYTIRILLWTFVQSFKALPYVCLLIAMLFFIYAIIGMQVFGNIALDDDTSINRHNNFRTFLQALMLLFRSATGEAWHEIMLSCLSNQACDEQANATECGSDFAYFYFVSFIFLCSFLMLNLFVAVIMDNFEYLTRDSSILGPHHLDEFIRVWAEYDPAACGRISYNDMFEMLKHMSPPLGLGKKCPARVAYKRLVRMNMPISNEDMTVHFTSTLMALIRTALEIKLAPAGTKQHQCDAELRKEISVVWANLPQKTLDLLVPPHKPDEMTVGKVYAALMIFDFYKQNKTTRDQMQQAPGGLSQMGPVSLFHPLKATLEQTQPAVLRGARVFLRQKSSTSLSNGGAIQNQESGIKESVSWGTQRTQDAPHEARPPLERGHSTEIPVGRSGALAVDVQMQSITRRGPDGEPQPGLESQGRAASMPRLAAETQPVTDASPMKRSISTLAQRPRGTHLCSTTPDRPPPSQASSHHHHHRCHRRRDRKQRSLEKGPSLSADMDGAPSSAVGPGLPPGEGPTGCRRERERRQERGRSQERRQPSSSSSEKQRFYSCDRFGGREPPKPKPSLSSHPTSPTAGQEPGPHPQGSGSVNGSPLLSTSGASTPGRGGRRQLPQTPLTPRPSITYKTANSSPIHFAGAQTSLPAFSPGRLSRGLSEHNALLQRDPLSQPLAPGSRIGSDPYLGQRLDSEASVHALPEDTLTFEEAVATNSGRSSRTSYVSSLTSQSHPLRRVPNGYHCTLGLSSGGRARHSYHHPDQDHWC
N-type calcium channel subunits (α1B, α2δ, and β3a), sequence (P54289 25-1103 partner): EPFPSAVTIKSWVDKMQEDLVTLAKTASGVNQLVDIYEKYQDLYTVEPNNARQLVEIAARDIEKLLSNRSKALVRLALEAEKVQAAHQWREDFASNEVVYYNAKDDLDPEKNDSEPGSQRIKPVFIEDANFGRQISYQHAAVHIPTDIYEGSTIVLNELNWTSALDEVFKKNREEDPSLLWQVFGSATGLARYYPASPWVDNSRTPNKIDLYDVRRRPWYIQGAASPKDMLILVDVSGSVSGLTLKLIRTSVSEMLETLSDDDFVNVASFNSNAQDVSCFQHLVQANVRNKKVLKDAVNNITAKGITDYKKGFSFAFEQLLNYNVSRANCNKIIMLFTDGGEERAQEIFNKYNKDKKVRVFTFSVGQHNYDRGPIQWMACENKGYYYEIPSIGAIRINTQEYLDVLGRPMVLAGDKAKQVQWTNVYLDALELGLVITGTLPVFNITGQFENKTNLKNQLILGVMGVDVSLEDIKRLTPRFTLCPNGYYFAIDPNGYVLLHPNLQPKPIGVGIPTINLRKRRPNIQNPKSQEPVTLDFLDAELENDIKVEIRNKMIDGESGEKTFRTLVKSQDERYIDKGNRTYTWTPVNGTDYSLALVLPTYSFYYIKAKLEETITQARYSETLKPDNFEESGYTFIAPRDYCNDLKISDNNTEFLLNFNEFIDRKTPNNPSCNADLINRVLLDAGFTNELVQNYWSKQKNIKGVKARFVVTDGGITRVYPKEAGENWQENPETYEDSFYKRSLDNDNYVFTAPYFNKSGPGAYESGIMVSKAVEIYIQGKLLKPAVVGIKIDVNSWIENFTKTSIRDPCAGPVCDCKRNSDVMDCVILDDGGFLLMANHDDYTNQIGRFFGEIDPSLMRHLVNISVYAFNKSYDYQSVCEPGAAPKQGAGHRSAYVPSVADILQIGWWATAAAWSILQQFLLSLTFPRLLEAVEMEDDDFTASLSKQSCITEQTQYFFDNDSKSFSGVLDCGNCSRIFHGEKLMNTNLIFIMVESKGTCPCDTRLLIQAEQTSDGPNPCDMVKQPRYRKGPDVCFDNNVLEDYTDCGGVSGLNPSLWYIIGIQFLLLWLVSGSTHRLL
N-type calcium channel subunits (α1B, α2δ, and β3a), sequence (P54284 whole entry partner): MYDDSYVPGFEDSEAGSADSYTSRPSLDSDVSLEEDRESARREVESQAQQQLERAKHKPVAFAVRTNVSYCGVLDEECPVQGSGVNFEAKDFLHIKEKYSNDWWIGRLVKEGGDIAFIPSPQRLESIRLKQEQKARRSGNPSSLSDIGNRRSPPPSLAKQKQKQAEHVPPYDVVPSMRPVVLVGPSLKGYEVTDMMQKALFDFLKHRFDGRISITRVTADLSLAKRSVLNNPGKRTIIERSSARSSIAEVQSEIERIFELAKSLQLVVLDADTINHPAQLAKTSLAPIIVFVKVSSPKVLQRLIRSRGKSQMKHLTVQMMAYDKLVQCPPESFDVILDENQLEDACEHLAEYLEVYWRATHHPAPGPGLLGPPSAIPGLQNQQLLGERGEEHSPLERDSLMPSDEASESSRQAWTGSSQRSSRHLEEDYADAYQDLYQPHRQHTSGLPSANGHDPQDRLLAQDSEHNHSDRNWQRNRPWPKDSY

The target in the experiment is N-type calcium channel subunits (α1B, α2δ, and β3a) (Homo sapiens, UniProt Q00975). Briefly: Block of Cav2.2 channel, whole cell voltage clamp, manual and PatchXpress. Type of experiment: cell-based. The settings on record: Table 5; table follows Assay Example 3 (whole cell voltage clamp / PatchXpress); assay not given. The protocol:
Cells are grown either on poly-D-lysine coated coverglass (manual EP) or in TIS culture plates (PatchXpress). For the PatchExpress, cells are released from the flask using trypsin. In both cases, the […] solution is (in mM): 130 […], 10 EGTA, 10 HEPES, 2 MgCl2, 3 MgATP, pH 7.3 with CsOH.
Microelectrodes are fabricated from borosilicate glass and fire-polished. […] The reference electrode is a silver-silver chloride pellet. Voltages are not corrected for the liquid junction potential between the internal and external solutions and leak is subtracted using the P/n procedure. Solutions are applied to cells by bath perfusion via gravity. The experimental chamber volume is—0.2 mL. and the perfusion rate is 0.5-2 mL/min. Flow of suction through the chamber is maintained at all times. Measurement of current amplitudes is performed with […] software (HEKA Elektronik).
PatchXpress (Molecular Devices) is a 16-well whole-cell automated patch clamp device that operates asynchronously with fully integrated fluidics. […] Capacitance and series resistance compensation is automated. No correction for liquid junction potentials is employed. Leak is subtracted using the P/n procedure. Compounds are added to cells with a pipettor from a 96-well compound plate. Voltage protocols and the recording of membrane currents are performed using the PatchXpress software/hardware system. Current amplitudes are calculated with DataXpress software.
In both manual and automated patch clamp, cells are voltage clamped at […] or −90 m V and 50 ms pulses to +20 mV are applied every 15 sec (0.067 Hz). Compounds are added in escalating doses to measure % inhibition. Percent inhibition is calculated from the ratio of the curerent amplitude in the presence and absence of compound. When multiple doses are achieved per cell, IC50 values are calculated.
For `O=C(N[C@H]1CC[C@@](F)(S(=O)(=O)c2cccc(C(F)(F)F)c2)CC1)c1ccc(O)c(C(F)(F)F)c1` [Compound 247, N-((1S,4S)-4-fluoro-4-(3-(trifluoromethyl)phenylsulfonyl)cyclohexyl)-4-hydroxy-3-(trifluoromethyl)benzamide], the IC50 – broadly, the concentration that inhibits the measured activity by half – stood at 1010 nM.
For `CC(C)(C)c1nc([C@H]2C[C@@H](S(=O)(=O)c3cccc(C(F)(F)F)c3)C2)c[nH]1` [Compound 447, 2-tert-butyl-4-((1S,3S)-3-(3-(trifluoromethyl)phenylsulfonyl)cyclobutyl)-1H-imidazole] the value was 1830 nM; for `CN(CC(=O)N[C@H]1CC[C@H](CS(=O)(=O)c2cccc(C(F)(F)F)c2)CC1)C(C)(C)C` [Compound 161, 2-(tert-butyl(methyl)amino)-N-((1R,4R)-4-((3-(trifluoromethyl)phenylsulfonyl)methyl)cyclohexyl)acetamide], 2450 nM.
As for `CC(C)(C)NC(=O)CN[C@H]1C[C@H](S(=O)(=O)c2cccc(C(F)(F)F)c2)C1` [Compound 215, N-tert-butyl-2-(trans-3-(3-(trifluoromethyl)phenylsulfonyl)cyclobutylamino)acetamide], the 50% inhibitory concentration (IC50) is 2810 nM.
Take “4,5-dichloro-N-((1R,4R)-4-(3- (trifluoromethyl)phenylsulfonyl) cyclohexyl)isothiazole-3- carboxamide [Compound 183]”: the IC50 turned out to be 1990 nM.
Regarding “2-chloro-6-(trifluoromethyl)-N- ((1S,4S)-4-(3- (trifluoromethyl)phenylsulfonyl) cyclohexyl)nicotinamide [Compound 200]”, the IC50 turned out to be 1020 nM.
With `CC(C)([C@H]1C[C@H](NC(=O)c2ncc(C(F)(F)F)cc2S(C)(=O)=O)C1)S(=O)(=O)c1cccc(C(F)(F)F)c1` [Compound 436, 3-(methylsulfonyl)-5-(trifluoromethyl)-N-((1R,3R)-3-(2-(3-(trifluoromethyl)phenylsulfonyl)propan-2-yl)cyclobutyl)picolinamide], the IC50 was 630 nM.
In the case of `COc1cc(F)cc(C(=O)NC[C@]2(O)CC[C@@H](S(=O)(=O)c3cccc(C(F)(F)F)c3)CC2)c1` [Compound 229, 3-fluoro-N-(((1S,4S)-1-hydroxy-4-(3-(trifluoromethyl)phenylsulfonyl)cyclohexyl)methyl)-5-methoxybenzamide], the half-maximal inhibitory concentration (IC50) turned out to be 1020 nM.
The result for `O=C(CN[C@H]1C[C@H](S(=O)(=O)c2cccc(C(F)(F)F)c2)C1)N1CCC(C(F)(F)F)CC1` [Compound 214, 2-(trans-3-(3-(trifluoromethyl)phenylsulfonyl)cyclobutylamino)-1-(4-(trifluoromethyl)piperidin-1-yl)ethanone] reads 2090 nM; that for `O=S(=O)(c1cccc(C(F)(F)F)c1)[C@H]1C[C@H](c2c[nH]c(-c3ccc(C(F)(F)F)cc3)n2)C1` [Compound 443, 2-(4-(trifluoromethyl)phenyl)-4-((1R,3R)-3-(3-(trifluoromethyl)phenylsulfonyI)cyclobutyl)-1H-imidazole], 440 nM.
The result for `O=C(N[C@H]1CC[C@@H](S(=O)(=O)c2cccc(C(F)(F)F)c2)CC1)c1cnc(C(F)(F)F)nc1` [Compound 205, 2-(trifluoromethyl)-N-((1S,4S)-4-(3-(trifluoromethyl)phenylsulfonyl)cyclohexyl)pyrimidine-5-carboxamide] reads 1700 nM; that for `CC(C)(C)c1nc([C@H]2C[C@H](S(=O)(=O)c3cccc(C(F)(F)F)c3)C2)c[nH]1` [Compound 448, 2-tert-butyl-4-((1R,3R)-3-(3-(trifluoromethyl)phenylsulfonyl)cyclobutyl)-1H-imidazole], 2110 nM.
As for `CCN(CC)C(=O)CN[C@H]1CC[C@H](S(=O)(=O)c2cccc(C(F)(F)F)c2)CC1` [Compound 71, N,N-diethyl-2-((1R,4R)-4-(3-(trifluoromethyl)phenylsulfonyl)cyclohexylamino)acetamide], the half-maximal inhibitory concentration (IC50) was determined as 5870 nM.
The result for `COc1cc(F)cc(C(=O)N[C@H]2C[C@H](S(=O)(=O)c3cccc(C(F)(F)F)c3)C2)c1` [Compound 222, 3-fluoro-5-methoxy-N-(trans-3-(3-(trifluoromethyl)phenylsulfonyl)cyclobutyl)benzamide] reads 2960 nM.
For `O=C(N[C@H]1C[C@H](S(=O)(=O)c2cccc(C(F)(F)F)c2)C1)c1ccc(F)c(C(F)(F)F)c1` [Compound 224, 4-fluoro-3-(trifluoromethyl)-N-(trans-3-(3-(trifluoromethyl)phenylsulfonyl)cyclobutyl)benzamide] the value was 1500 nM; for `O=C(N[C@H]1CC[C@@H](S(=O)(=O)c2cccc(C(F)(F)F)c2)CC1)c1ccnc(Cl)c1` [Compound 194, 2-chloro-N-((1S,4S)-4-(3-(trifluoromethyl)phenylsulfonyl)cyclohexyl)isonicotinamide], 1330 nM; for `CC1(NC(=O)c2ccnn2CC(F)(F)F)CCC(S(=O)(=O)c2cccc(C(F)(F)F)c2)CC1` (stereo not drawn) [Compound 314, N-(1-methyl-4-(3-(trifluoromethyl)phenylsulfonyl)cyclohexyl)-1-(2,2,2-trifluoroethyl)-1Hpyrazole-5-carboxamide], 4920 nM.
For “6-(trifluoromethyl)-N-((1S,4S)-4- (3-(trifluoromethyl)phenylsulfonyl) cyclohexyl)nicotinamide [Compound 199]” the value was 1250 nM.
For `N[C@@H]1CCCC[C@H]1C(=O)N[C@H]1CC[C@@](F)(S(=O)(=O)c2cccc(C(F)(F)F)c2)CC1` [Compound 284, (1R,2R)-2-amino-N-((1S,4S)-4-fluoro-4-(3-(trifluoromethyl)phenylsulfonyl)cyclohexyl) cyclohexanecarboxamide], the IC50 was found to be 1050 nM.
Turning to `O=C(N[C@H]1CC[C@H](S(=O)(=O)c2cccc(C(F)(F)F)c2)CC1)c1ccc(OCC(F)(F)F)nc1` [Compound 184], the IC50 amounted to 3110 nM.
Consider `CC(C)(C)NCC(=O)N[C@H]1CC[C@H](CS(=O)(=O)c2cccc(C(F)(F)F)c2)CC1` [Compound 160, 2-(tert-butylamino)-N-((1R,4R)-4-((3-(trifluoromethyl)phenylsulfonyl)methyl)cyclohexyl)acetamide], for which the concentration for half-maximal inhibition (IC50) stood at 1990 nM.
On to `O=C(Nc1ccc(Oc2ccc(F)cc2)cc1)[C@H]1C[C@H](S(=O)(=O)c2cccc(C(F)(F)F)c2)C1` [Compound 406, (1R,3R)-N-(4-(4-fluorophenoxy)phenyl)-3-(3-(trifluoromethyl)phenylsulfonyl)cyclobutane carboxamide], for which the IC50 is 1540 nM.
For `O=C(N[C@H]1CC[C@H](CS(=O)(=O)c2cccc(C(F)(F)F)c2)CC1)c1ccnc(C(F)(F)F)c1` [Compound 176, 2-(trifluoromethyl)-N-((1R,4R)-4-((3-(trifluoromethyl)phenylsulfonyl)methyl)cyclohexyl)isonicotinamide] the value was 9440 nM; for `CC1(CNC(=O)c2nc3ccc(C(F)(F)F)cc3[nH]2)CCC(F)(S(=O)(=O)c2cccc(C(F)(F)F)c2)CC1` (stereo not drawn) [Compound 156, N-((4-fluoro-1-methyl-4-(3-(trifluoromethyl)phenylsulfonyl)cyclohexyl)methyl)-6-(trifluoromethyl)-1H-benzo[d]imidazole-2-carboxamide], 1230 nM.
